Measured values as given in US12583818B2 (DAEGU-GYEONGBUK MEDICAL INNOVATION FOUNDATION, priority 2020, dated 2026).
Where two headings read alike, the source gives them in different places.

Legend:
Pin1 = biological target: T1, Pin1 (Homo sapiens, UniProt Q13526); assay: Evaluation of Pin1 enzyme inhibitory activity (Sensolyte Green Pin1 assay kit); type: biochemical
T1 construct: purchased Anaspec
Outline: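 Compounds were tested at four working concentrations (100, 10, 1, 0.1 μM), mixed with Pin1 (50 μg/ml stock dilution), developer and substrate (1 μM as prepared). Fluorescence at 490/520 nm was recorded after 2 h in the dark at room temperature. Results were grouped into grades A–D by inhibiting concentration.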

[1] = system: A2780 cells (ovarian cancer cells); assay: Cell viability of A2780 cells (Cell-titer Glo); type: cell-based; details: Homo sapiens
Protocol: (§1) In order to confirm the inhibitory effect of the compound represented by formula 1 according to the present invention on the growth of MCF7, MCF7-SP, A2780 or A2780-SP cells, the following experiment was performed, and the results are shown in Tables 4 and 5 below.
In addition, A2780 cells (ovarian cancer cells) were plated in a 96-well plate at the density of 3000 viable cells per well, and cultured in RPMI-1640 medium supplemented with 10% FBS and 1% penicillin/streptomycin.
(§2) On the next day of culture, the cells were treated with the compound of Examples 57, and 69 to 144, followed by culture for 3 days. Cell viability was evaluated by Cell-titer Glo (Promega, WC, USA), and luciferase activity was detected using a Tecan plate reader (Biocompare, USA).

[2] = system: A2780-SP cells (ovarian cancer stem cells); assay: Sphere cell viability of A2780-SP cells (Cell-titer Glo); type: cell-based
Protocol: as §1
On the other hand, A2780-SP cells (ovarian cancer stem cells) were plated in an Ultra-Low Attachment round bottom 96-well plate (corning) at the density of 1,500 viable cells per well, and cultured in cancer stem cell medium. The cancer stem cell medium is composed of the neurobasal medium supplemented with 20 ng/ml of bFGF, 10 ng/ml of EGF, […] of amphotericin B, HEPES, Glutamax and B27.
as §2, with “for 8” for “for 3”, “days. The medium containing the compound was added thereto once again on the 4th day. Sphere cell” for “days. Cell”

[3] = concentration at which the Pin1 enzyme activity is inhibited, 2 hours at room temperature, fluorescence 490 nm/520 nm, read-out: Pin 1 inhibition
[4] = 72 h, cell viability, culture for 3 days, read-out: A2780
[5] = 192 h, sphere cell viability, culture for 8 days, read-out: A2780-SP
[6] = Table 2, read-out: concentration at which Pin1 inhibitory activity was exhibited
[7] = A2780, Table 5, read-out: A2780 cell concentration
[8] = Table 5, read-out: the concentration (second list of b710, cell line not named; matches A2780-SP column)

T1 sequence (Q13526 whole entry): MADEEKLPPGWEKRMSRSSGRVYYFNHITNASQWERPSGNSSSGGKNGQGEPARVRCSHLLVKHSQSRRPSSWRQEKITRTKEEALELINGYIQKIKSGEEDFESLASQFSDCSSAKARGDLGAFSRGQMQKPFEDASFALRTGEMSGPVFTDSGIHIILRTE

Row | Compound | IC50 (Pin1; [3]) [nM] | IC50 [1, 4] [nM] | IC50 [2, 5] [nM] | IC50 (Pin1; [6]) [nM] | IC50 [1, 7] [nM] | IC50 [2, 8] [nM]
1 | O=S(=O)(NCCCc1c[nH]c2ccc(Cl)cc12)c1cccc(OCCCN2CCCCC2)c1 [Example 95, N-(3-(5-chloro-1H-indol-3-yl)propyl)-3-(3-(piperidin-1-yl)propoxy)benzenesulfonamide] | 1000 to 10000 | > 10000 | 1000 to 10000 |  |  | 
2 | O=S(=O)(NCCCc1c[nH]c2ccc(Cl)cc12)c1ccc(OCCCN2CCCC2)cc1 [Example 100, N-(3-(5-chloro-1H-indol-3-yl)propyl)-4-(3-(pyrrolidin-1-yl)propoxy)benzenesulfonamide] | < 1000 | 1000 to 10000 | < 1000 | < 1000 | < 10000 | < 1000
3 | C[C@@H]1CN(CCCOc2ccc(S(=O)(=O)NCCCc3c[nH]c4ccc(Cl)cc34)cc2)CCN1 [Example 108, (R)—N-(3-(5-chloro-1H-indol-3-yl)propyl)-4-(3-(3-methylpiperazin-1-yl)propoxy)benzenesulfonamide] | < 1000 | 1000 to 10000 | < 1000 | < 1000 | < 10000 | < 1000
4 | O=S(=O)(NCCCc1c[nH]c2ccc(Cl)cc12)c1ccc(NCCCN2CCNCC2)cc1 [Example 113, N-(3-(5-chloro-1H-indole-3-yl)propyl)-4-((3-(piperazine-1-yl)propyl)amino)benzenesulfonamide] | < 1000 |  | 1000 to 10000 | < 1000 |  | 
5 | O=S(=O)(NCCCc1c[nH]c2ccc(Cl)cc12)c1ccc(NCCCN2CCCCC2)cc1 [Example 114, N-(3-(5-chloro-1H-indol-3-yl)propyl)-4-((3-(piperidin-1-yl)propyl)amino)benzenesulfonamide] | < 1000 |  | 1000 to 10000 | < 1000 |  | 
6 | CN1CCC(CCCCc2ccc(S(=O)(=O)NCCCc3c[nH]c4ccc(Cl)cc34)cc2)CC1 [Example 115, N-(3-(5-chloro-1H-indol-3-yl)propyl)-4-(4-(1-methylpiperidin-4-yl)butyl)benzenesulfonamide] | < 1000 |  | < 1000 | < 1000 |  | < 1000
7 | O=S(=O)(NCCCc1c[nH]c2ccc(Cl)cc12)c1ccc(OCC2(CN3CCNCC3)CC2)cc1 [Example 117, N-(3-(5-chloro-1H-indol-3-yl)propyl)-4-((1-(piperazin-1-ylmethyl)cyclopropyl)methoxy)benzenesulfonamide] | < 1000 |  | 1000 to 10000 | < 1000 |  | 
8 | CN1CCN(c2cc(Cl)nc(Nc3ccc(S(=O)(=O)NCCCc4c[nH]c5ccc(Cl)cc45)cc3)c2)CC1 [Example 140, N-(3-(5-chloro-1H-indol-3-yl)propyl)-4-((6-chloro-4-(4-methylpiperazin-1-yl)pyridin-2-yl)amino)benzenesulfonamide] | < 1000 |  | 1000 to 10000 | < 1000 |  | 
9 | CN1CCN(c2cc(Nc3ccc(S(=O)(=O)NCCCc4c[nH]c5ccc(Cl)cc45)cc3)nc(N3CCN(C)CC3)c2)CC1 [Example 141, 4-((4,6-bis(4-methylpiperazin-1-yl)pyridin-2-yl)amino)-N-(3-(5-chloro-1H-indol-3-yl)propyl)benzenesulfonamide] | < 1000 |  | 1000 to 10000 | < 1000 |  | 
10 | CN1CCN(CCCOc2ccc(C(=O)NCCCc3c[nH]c4ccc(Cl)cc34)cc2)CC1 [Example 143, N-(3-(5-chloro-1H-indole-3-yl)propyl)-4-(3-(4-methylpiperazine-1-yl)propoxy)benzamide] | < 1000 |  | 1000 to 10000 | < 1000 |  | 
11 | CN1CCN(CCCOc2ccc(S(=O)(=O)Nc3ccccc3C(C)(C)c3c[nH]c4ccc(Cl)cc34)cc2)CC1 [Example 181, N-(2-(2-(5-chloro-1H-indole-3-yl)propane-2-yl)phenyl)-4-(3-(4-methylpiperazine-1-yl)propoxy)benzenesulfonamide] | 1000 to 10000 |  |  |  |  | 
12 | CC(C)(c1ccccc1NS(=O)(=O)c1ccc(OCCCN2CCNCC2)cc1)c1c[nH]c2ccc(Cl)cc12 [Example 182, N-(2-(2-(5-chloro-1H-indol-3-yl)propan-2-yl)phenyl)-4-(3-(piperazin-1-yl)propoxy)benzenesulfonamide] | 1000 to 10000 |  |  |  |  | 
